One molecule from patent US20250387481A1, “PRE-TREATED T CELLS FOR USE AS A MEDICAMENT” (STICHTING HET NEDERLANDS KANKER INSTITUUT-ANTONI VAN …, priority 2022, published 2025) can be followed below.

One assay relates to MMTV-PyMT tumors. Nature of the assay: Drug treatment in vivo of mice bearing MMTV-PyMT tumors. More on the design: species or system mouse. The method, then:
For tumor generation, tumor organoids were transplanted into the 4th mammary fat pad of FVB female mice. Rimadyl (0.067 mg/ml, Zoetis) was administered to mice in the drinking water from 24 h before surgery and for 48 h after surgery. Mice were also treated with temgesic (0.1 mg/kg, Indivior Europe Limited), 1 hr before and 12 h after surgery. Mice were anesthetized with isoflurane (2%, v/v) and their eyes were covered with duratears (Alcon). About 100,000 single cells derived from KB1P organoids or 200,000 single cells derived from MMTV-PyMT organoids were injected in 30 μl of BME (Amsbio, Cat. No. 3533-005-02). Mice were weighed and monitored three times a week after transplantation of tumor organoids. Tumor volume was measured with calipers three times weekly. The researcher performing the measurement of tumor volume was blinded to the treatment group. For survival experiments, endpoint was reached when tumor reached 2000 mm3. For specific experiments, reference is made to the schematic representations of treatment timelines depicted in the figures.
Once tumors were established and reached a size of ˜7×7 mm, mice were randomized into treatment groups with the following drug dosages and timeline: • AC+T treatment: every 14 days, cyclophosphamide (144 mg/kg, administered via intraperitoneal injection), doxorubicin (5 mg/kg, administered via intravenous injection) and docetaxel (25 mg/kg, resuspended in acetonitrile containing 0.1% acetic acid, administered via intravenous injection). Doxorubicin hydrochloride (Adriamycin) and cyclophosphamide (C), when combined in a treatment, are herein referred to as “AC”. Taxanes, as broadly described and disclosed herein, are referred to as “T”. […]

The subject of assay [1] is human lung tumor organoids. Nature of the assay: Tumor organoids killing assay with autologous tumor-reactive T cells. The class given is cell-based. The conditions noted are these: tumor-reactive T cells pre-treated with 10 nmol/L docetaxel. The method, then:
To express luciferase in the tumor organoids, we used pLenti CMV Puro LUC (w168-1; Plasmid #17477; Addgene). Tumor-reactive PBMC were thawed in pre-warmed T cell medium and incubated for 15 minutes with 25 U/ml Benzonase. After washing, cells were re-suspended at 2−3×10^6 cells/ml in T cell medium and cultured overnight at 37° C. The day after, PBMC were incubated with (or without) 10 nmol/L docetaxel for 48 hr. To determine the sensitivity of tumor and healthy organoids to T cell-mediated killing, flatbottom non-tissue culture treated plates were coated with 5 μg/ml αCD28 and kept at 4° C. overnight prior to co-culture. Tumor organoids were previously transduced with luciferase reporter gene. Organoids were isolated from Geltrex 48 hours prior to co-culture and stimulated with 200 ng/ml IFNγ for 24 hr prior to co-culture. The next day, part of the organoids was dissociated to single cells and counted using a hemocytometer. […] At the end of the 72 hours, tumor and healthy organoids viability in the different conditions was evaluated by microscopy, taking bright-field pictures at 5 and 10× magnification. Tumor cell viability in the different conditions was also measured by luciferase reporter assay using 3 μg/mL luciferin. Luminescence was measured with a Tecan reader (1,000 ms exposure).

Take `CC(=O)O[C@@]12CO[C@@H]1C[C@H](O)[C@@]1(C)C(=O)[C@H](O)C3=C(C)[C@@H](OC(=O)[C@H](O)[C@@H](NC(=O)OC(C)(C)C)c4ccccc4)C[C@@](O)([C@@H](OC(=O)c4ccccc4)[C@H]21)C3(C)C` [docetaxel]: the “anti-tumor effects of docetaxel (survival) upon T cell depletion” value with MMTV-PyMT tumors (depletion of CD4 alone, CD8 alone or both) is on record as “abrogated the anti-tumor effects”. In addition, the tumor outgrowth entry in the assay with MMTV-PyMT tumors (docetaxel 25 mg/kg intravenous every 14 days vs vehicle) is listed as “delayed tumor outgrowth”. For the same molecule, the “accumulation of mitotic figures in tumors” value in the assay with MMTV-PyMT tumors (tumors isolated 24 h after the second docetaxel administration) is listed as “did not observe an accumulation of mitotic figures”. Further, the “anti-tumor capacity against tumor organoids (organoid viability, luciferase)” value in assay [1] is “increased their anti-tumor capacity”.
